Type in all cases: cell-based
For assay [1], the system named is human neuroblastoma cell line SH-SY5Y. Description: Neurotoxicity assay, SH-SY5Y cells + erastin or RSL3, MTS cell viability. Particulars: Homo sapiens. The protocol: (§1) The excitotoxicity model used was the mouse hippocampal neuronal HT22 cells treated with glutamate [Dixon et al., Cell, 2012, 149(5), 1060-1072]. Ferroptosis and oxidative stress are both associated in this glutamate-induced cell death [Chu et al., Neural Regen. Res., 2020, 15(3), 528-536]. Phenotypic screening was also carried out with additional cell death inducers, erastin and RSL3 ((1S,3R)-Ras-selective lethal), in HT22 and SH-SY5Y (human neuroblastoma cells). Erastin and RSL3 are well described molecules, used as chemical tools for the study of ferroptosis regulation and neuronal pathologies [Lewerenz et al., Front. Neurosci., 2018, 12: 214; Reichert et al., Int. J. Mol. Sci., 2020, 21, 8765].
(§2) Mouse hippocampal neuronal cell line (HT22, ATCC) and human neuroblastoma cell line (SH-SY5Y, ATCC) were grown in Dulbecco's Modified Eagle Medium (DMEM, Gibco) supplemented with 10% fetal bovine serum (FBS, Gibco) at 37° C. under 5% CO2 atmosphere. Neurotoxicity was induced by erastin or RSL3 and excitotoxicity was induced by glutamate. Cells were seeded in 96-well plates at 5,000 and 10,000 cells/well for HT22 and SH-SY5Y cell lines, respectively. Cells were treated with 0.5-1 μM Erastin (HT22 cells) or 10 μM Erastin (SH-SY5Y cells) or 5-10 mM glutamate (HT22 cells) or 0.5 μM RSL3 (HT22 cells) or 5 μM RSL3 (SH-SY5Y cells) for 24 h in presence of increasing concentrations of inhibitors. Cells treated with DMSO only were used as controls. Cell viability was assessed by MTS assay (CellTiter 96 AQueous One Solution Cell Proliferation assay, Promega).
(§3) In FIGS. 1, 2A and 2B, an inhibitor was added to HT22 (FIG. 1: compound 6) or SH-SY5Y (FIG. 2A: compound 6; FIG. 2B: compound 25) cells in the presence or not of cell death inducers (erastin, glutamate or RSL3). […] EC50 values for compounds 1-28 were calculated from dose-response curves using Graphpad Prism software.

In assay [2] the test system is mouse hippocampal neuronal cell line HT22. The assay can be described thus: Neurotoxicity and excitotoxicity assay, HT22 cells + glutamate, erastin or RSL3, MTS cell viability. The following applies: Mus musculus. The procedure: as §1, §2, §3
In a further assay the test system is Rat dopaminergic neurons. Description: Protective effect after 6-OHDA injury on rat primary dopaminergic neurons survival (TH staining). The following applies: for cellular death of dopaminergic neurons after 6-OHDA injury: 1 h before and during 2 days of 6-OHDA 20 μM (alone 48%), p<0.001; for rescue of dopaminergic neurons from cell death after 6-OHDA injury: at every concentration tested of 10 μM, 1 μM and 0.1 μM. The protocol: As explained in Ding et al., J Neurochem., 2004, (89), administration of 6-Hydroxydopamine (6-OHDA), a neurotoxin, has been widely used to cause the selective degeneration of dopamine (DA) neurons in in vitro and in vivo models. These models are used as Parkinson's disease models, which is characterized by the progressive loss of DA neurons of the substantia nigra.
Rat dopaminergic neurons were cultured as described by Schinelli et al., J Neurochem., 1988, 50(6). The cells were seeded at a density of 40 000 cells/well in 96 well-plates (precoated with poly-D-lysine; Greiner, Ref: 655940, Batch: E20093UL) and were cultured at 37° C. in a humidified air (95%)/CO2 (5%) atmosphere. Half of the medium was changed every 2 days with fresh medium. In these conditions, after 5 days of culture, astrocytes are present in the culture and release growth factor allowing neurons differentiation. In this condition, 2 to 5% of neurons are dopaminergic neurons.
6-OHDA (Sigma, Ref: 162957, Batch MKCK5243) was reconstituted in define culture medium at 40 μM (stock solution). The control medium was prepared in the same conditions. After 7 days of culture, primary mesencephalic neurons were pre-treated for 1 hour with test compounds or reference compound (BDNF, 50 ng/mL) and then intoxicated with 6-OHDA at a final concentration of 20 μM for 2 days incubation in order to induce a neuronal cell death of about 50%+/−5%.
After 2 days of intoxication in presence or absence of test compounds, cells were fixed by a solution of 4% paraformaldehyde (Sigma, ref 6148, Batch: SZBE2390V) for 20 min at room temperature, the control conditions were fixed as well following the same procedure. The cells were then permeabilized and nonspecific sites were blocked with a solution of phosphate buffered saline (PBS; PanBiotech; ref: P04-36500, Batch: 7701020) containing 0.1% of saponin (Sigma; ref: S7900, Batch: BCBL8667V) and 1% FCS for 15 min at room temperature. Cells were incubated with a mouse monoclonal anti-Tyrosine Hydroxylase (TH, 1/10 000, Sigma; ref: T1299, Batch: 014M4835) antibody in a solution of PBS overnight at 4° C. Antibody against TH stained dopaminergic neurons. […] Nuclei of cells were labelled by a fluorescent marker (Hoechst, Sigma; ref: B1155, Batch: 046M4048V) in the same solution. For each condition, 20 pictures per well were taken using InCell Analyzer™ 2200 (GE Healthcare) with 20× magnification. Images of each culture well were taken in same condition. Analysis of cell bodies of TH positive neurons was performed using Developer software (GE healthcare). A total of 6 data per experimental condition were provided.

Setting [3] is: 10 μM (first value of 'respectively').

Experimental findings from US20240116923A1, “USE OF INDOLE, 6- AND 7-AZAINDOLE DERIVATIVES AS INHIBITORS OF FERROPTOSIS REGULATED CELL DEATH” (Seabelife, priority 2021, published 2024) are described below.

Each structure is given as a SMILES string. Read-outs that look alike come from different tables or passages of the source. Where only a bound is given, the exact number is not on record here.

On to `Oc1ccc(-c2cc3ccccc3[nH]2)cc1` [Compound 1, 4-(1H-indol-2-yl)phenol], for which the 50% effective concentration (EC50) in assay [1] (SH-SY5Y, 24 h, read-out: EC50 SH-SY5Y Erastin) is 1.06 µM; in assay [2] (HT-22, 24 h, read-out: EC50 HT22 Erastin), 2.9 µM; in assay [2] (HT-22, 24 h, read-out: EC50 HT22 Glutamate), 2.55 µM; in assay [2] (HT-22, 24 h, read-out: EC50 HT22 RSL3), 3.27 µM. For the same compound, the “cellular death of dopaminergic neurons after 6-OHDA injury” value with Rat dopaminergic neurons (setting [3]) worked out at 25%. For the same compound, the “rescue of dopaminergic neurons from cell death after 6-OHDA injury” value with Rat dopaminergic neurons is “partially and significantly rescue”.
As for `Oc1ccc(-c2cc3cccnc3[nH]2)cc1` [Compound 7, 4-(1H-pyrrolo[2,3-b]pyridin-2-yl)phenol], the EC50 in assay [1] (SH-SY5Y cells, 5 μM RSL3, 24 h, MTS, read-out: EC50 SH-SY5Y RSL3) is 1.36 µM; in assay [1] (SH-SY5Y cells, 10 μM Erastin, 24 h, MTS, read-out: EC50 SH-SY5Y Erastin) it was 12.4 µM; in assay [2] (HT-22, HT22 cells, 0.5 μM RSL3, 24 h, MTS, read-out: EC50 HT22 RSL3) it was 14.6 µM; in assay [2] (HT-22, HT22 cells, 0.5-1 μM Erastin, 24 h, MTS, read-out: EC50 HT22 Erastin), over 25 µM; in assay [2] (HT-22, HT22 cells, 5-10 mM glutamate, 24 h, MTS, read-out: EC50 HT22 Glutamate) it was over 25 µM. Besides, the “cellular death of dopaminergic neurons after 6-OHDA injury” value with Rat dopaminergic neurons (1 μM (second value of 'respectively')) was determined as 24%; in the assay on Rat dopaminergic neurons (setting [3]) it was 16%. For the same compound, in the assay on Rat dopaminergic neurons, the “rescue of dopaminergic neurons from cell death after 6-OHDA injury” value is “partially and significantly rescue”.
